From patent US11046932B2, “Method of producing renal cells from differentiated cells” (priority 2016, dated 2021)

Legend:
[1] = test system: mouse embryonic fibroblasts (MEFs); experiment: Reprogramming efficiency: GFP-positive cells by flow cytometry in KSP-Cre mTOM/mGFP reporter MEFs; assay type: cell-based; details: added to culture medium of 4TF treated MEFs for 7 days: Vitamin C 50 μg/ml, CHIR99021 3 μM, Forskolin 10 μM, Valproic Acid 1 mM, 5-Azacytidine 2 μM
Description: Next, we expressed candidate transcription factors in isolated MEFs by lentiviral transduction and analyzed GFP reporter-expression by flow cytometry (FIG. 2a and FIG. 11a).
Tissue was minced with a scalpel and digested with 0.25% Trypsin-EDTA for 30 min at 37° C. Trypsinization was stopped by addition of MEF Medium (MEFM: Dulbecco's modified Eagle's medium (DMEM), 10% fetal bovine serum (FBS), 2 mM L-glutamine, penicillin/streptomycin). After resuspension the cells were centrifuged and the pellet was resuspended in MEFM and plated on gelatine-coated 6-well plates for 3 days until they reached confluency. […] MEFs, TTFs and human fibroblasts were frozen in liquid nitrogen and used without further passaging for reprogramming experiments. For efficiency improvement experiments the following substances were added to the cell culture medium for 7 days: Vitamin C (Sigma, 50 μg/ml); CHIR99021 (Sigma, 3 μM); Forskolin (FocusBiomolecules, 10 μM); Valproic Acid (Sigma, 1 mM); 5-Azacytidine (Sigma, 2 μM).
For the infection of MEFs, TTFs, HFoFs and HFeFs virus concentrate was diluted 1:100 (high viral titers) to 1:1000 (low viral titers) in MEFM containing 10 μg/ml Polybrene and cells were incubated for 12 h. Viral infection was repeated five to seven times. After cultivation in MEFM for 7 days, MEFs and TTFs were analyzed for GFP expression by flow cytometry.
For flow cytometry analyses, cells were harvested, resuspended in FACS buffer (PBS supplemented with 3% FBS and 5 mM EDTA), filtered through a 50 μm cell strainer and analyzed using the 13-color LCR Fortessa FACS analyzer (Becton Dickinson).

[2] = biological target: organic cation transporter 2 (Oct2) (Mus musculus, UniProt O70577); details: 6 μg/ml cisplatin and 1 mM cimetidine versus cisplatin alone
Sequence of organic cation transporter 2 (Oct2) (O70577 whole entry): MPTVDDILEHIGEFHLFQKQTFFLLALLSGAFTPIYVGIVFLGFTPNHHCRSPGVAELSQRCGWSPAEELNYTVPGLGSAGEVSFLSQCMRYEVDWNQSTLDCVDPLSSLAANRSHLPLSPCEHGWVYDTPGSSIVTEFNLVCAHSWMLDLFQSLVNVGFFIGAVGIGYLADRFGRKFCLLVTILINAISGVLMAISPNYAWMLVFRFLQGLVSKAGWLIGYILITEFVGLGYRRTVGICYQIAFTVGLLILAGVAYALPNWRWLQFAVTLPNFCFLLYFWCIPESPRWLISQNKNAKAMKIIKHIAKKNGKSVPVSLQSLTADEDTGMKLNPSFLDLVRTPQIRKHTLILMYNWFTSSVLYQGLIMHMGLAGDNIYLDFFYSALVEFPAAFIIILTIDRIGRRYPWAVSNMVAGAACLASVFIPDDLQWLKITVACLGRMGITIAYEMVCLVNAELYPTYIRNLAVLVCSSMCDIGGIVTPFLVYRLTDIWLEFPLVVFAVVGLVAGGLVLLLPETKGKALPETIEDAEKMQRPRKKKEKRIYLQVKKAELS
Description: Drug treated cells and untreated controls were stained with 1 μg/ml DAPI (Invitrogen, D1306) for 5 minutes and fluorescence was measured via flow cytometry using the 405 nm laser for excitation. Dead cells were identified by comparing emission of DAPI stained cell and unstained controls using a 450/50 nm band pass filter. For Kim-1 expression analysis MEFs and iRECs were treated with Gentamicin (1 mg/ml for 48 h), stained for Kim-1 (Miltenyi Biiotec, 130-106-024) and analyzed by flow cytometry. […] Cells were harvested and analyzed as described above. Experiments were performed in triplicates and repeated three times.

iRECs [3] = experiment: Kim-1 expression analysis by flow cytometry after drug treatment; assay type: cell-based, mouse; details: Gentamicin 1 mg/ml for 48 h
Description: (§1) Cells were harvested and analyzed as described above. Experiments were performed in triplicates and repeated three times.

iRECs [4] = experiment: Cytotoxicity assay (dead/apoptotic cells by DAPI flow cytometry) in iRECs versus MEFs; assay type: cell-based; details: Cisplatin 6 μg/ml 24 h; Tacrolimus 40 μM 24 h; Gentamicin 1 mg/ml 48 h
Description: as §1

Compound | effect on the percentage of GFP-positive cells [1] | further results
Nc1ncn([C@@H]2O[C@H](CO)[C@@H](O)[C@H]2O)c(=O)n1 [5 azacytidine, 5-azacytidine] | did not have an effect | –
Cc1c[nH]c(-c2cnc(NCCNc3ccc(C#N)cn3)nc2-c2ccc(Cl)cc2Cl)n1 [CHIR99021] | did not have an effect | –
CN/C(=N/CCSCc1nc[nH]c1C)NC#N [Cimetidine] | – | cisplatin induced toxicity in iRECs [2]: decreased
O=C1O[C@H]([C@@H](O)CO)C(O)=C1O [Vitamin C] | did not have an effect | –
CCCC(CCC)C(=O)O [valproic acid] | did not have an effect | –
Gentamicin | – | Kidney injury molecule 1 (KIM1) in iRECs (iRECs [3]): markedly increased; rate of apoptosis in treated iRECs compared to MEFs (iRECs [4]): significantly higher
